These results are taken from article PMC10779086, “3-O-Methyltolcapone and Its Lipophilic Analogues Are Potent Inhibitors of Transthyretin Amyloidogenesis with High Permeability and Low Toxicity” (International Journal of Molecular Sciences, 2023).

Data set [1] addresses T1, TTR (Homo sapiens, UniProt P02766). Briefly: TTR tetramer stability in diluted human plasma with urea, by immunoblotting. In kind it is biochemical. Details: from tissue; host or cells: human plasma. The conditions noted are these: 4 M urea, versus DMSO control. The method, then: The TTR tetramer stability assay in the presence of urea and TTR ligands was performed according to a previously reported Western Blot procedure, with some modifications as follows. Aliquots of human plasma were diluted 8-fold in sodium phosphate buffer (NaP 40 mM, NaCl 150 mM pH 7.4) supplemented with 2 µM or 20 µM of each ligand. A plasma aliquot supplemented with DMSO was used as a negative control. After 2 h of incubation at 20 °C, an equal volume of 8 M urea in sodium phosphate buffer was added to obtain a final 4 M urea concentration and final ligand concentration of 1 µM or 10 µM. Incubation was prolonged for 18 h at 20 °C, followed by non-denaturing SDS-PAGE using Tris-Glycine buffers containing 0.025% of SDS in the running buffer and 0.2% of SDS in the Laemmli buffer. […] Blotting was accomplished with a Trans-Blot SD transfer apparatus (BIORAD), followed by incubation of nitrocellulose membranes with blocking buffer containing 5% skim milk overnight at 25 °C. Immunodetection of TTR monomers was performed by employing rabbit anti-human TTR polyclonal antibody (Dako) as a primary and goat anti-rabbit antibody labelled with DyLight 680 ([…]) as a secondary. Western Blot images were recorded by using ChemiDoc MP imaging system (BIORAD) and analysed with Image Lab software v. 5.1 (BIORAD). The experiment was performed in triplicate, and ligands stabilisation capability was evaluated as the relative intensity of the TTR monomer in each condition in comparison to the negative control. Statistical analyses by means of ANOVA and graphic representations were performed with GraphPad Prism.
In general terms: In western blotting, separated proteins are transferred to a membrane and probed.

The target of data set [2] is T1, TTR. Briefly: Isothermal titration calorimetry (ITC), one-binding-site model. More on the design: made in house; host or cells: E. coli BL21; ∆S: unit not given here. The conditions noted are these: single-binding-site model, 25 °C; for Kd: pH 7.4, 5% DMSO. The method, then:
At an absorbance value of 600 nm around 0.3, the temperature was shifted to 30 °C.
Data were fitted using the “one-binding-site model” of the Malvern version of ORIGIN v.7. The heat of binding (ΔH), the stoichiometry (n), entropy (ΔS) and the dissociation constant (Kd) were then calculated from plots of the heat evolved per mole of ligand injected versus the molar ratio of ligand to protein using the software provided by the vendor (Table 3). Sample preparation is detailed below. […] A 10 µM protein stock in 2× buffer was then prepared and diluted 1:1 with a 10% DMSO solution, to obtain a 5 µM TTR solution in 1× buffer A and 5% DMSO. Different protein concentrations (3–5 µM) assayed in the replicates were prepared accordingly, starting from a 2× protein solution in 2× buffer A. Each ligand was dissolved in 100% DMSO and a 2 mM stock solution in 100% DMSO was prepared. A 200 µM compound solution was obtained in 10% DMSO and diluted 1:1 with 2× buffer A, to obtain a 100 µM ligand solution to be used for the ITC assays (in 1× buffer A and 5% DMSO).
In general terms: Isothermal titration calorimetry measures the heat released or taken up as one component is titrated into another.

Data set [3] in a line: Chromatographic Hydrophobicity Index (CHI). It is filed as physicochemical. The source says: The assay is a chromatographic fast gradient reversed-phase method which allows to characterize the lipophilicity of compounds in high throughput screening regime at three different pH values (2.0; 7.4; 10.5). The so defined CHI is obtained from the gradient (buffer/Acetonitrile) retention time after calibrating the chromatographic system with a test mixture of ten known standard compounds. For most compounds, CHI is between 0 and 100 and it approximates the percentage (by volume) of acetonitrile required to achieve an equal distribution of compound between the mobile and the lipophilic stationary phase of a C18 chromatographic column. Compounds that are not retained on the column are assigned to a CHI value < 0, which means very low lipophilicity. For highly lipophilic compounds, which are strongly retained by the column, a CHI value of >100 is assigned. For any value in between, the actual CHI value is calculated based on the calibration line of the reference compounds [49].

Data set [4] relates to HepG2 human liver cancer cell line. The experiment in a line: Cytotoxicity in HepG2 cells (ATP viability assay). In kind it is cell-based. The conditions noted are these: 48 h. The method, then:
Compounds were dissolved at the concentration of 50 mM in DMSO.
DMSO normalisation at 1.0% was performed in each well.
(§1) Cell viability was evaluated by measuring ATP levels using CellTiter Glo (Promega Cat.n. G7570) according to manufacturer’s instructions.

Data set [5] relates to SH-SY5Y neuroblastoma human cell line. The experiment in a line: Cytotoxicity in SH-SY5Y cells (ATP viability assay). It is filed as cell-based. To be noted: 48 h. The method, then:
The neuroblastoma cell line SHSY-5Y (ATCC CRL2266) was cultured in EMEM ATCC medium supplemented with 10% FBS (Euroclone CAT No. ECS0180D), 100 units/mL penicillin, and 100 ug/mL streptomycin sulphate (Euroclone CAT No. ECB3001). Cells were grown at 37 °C in an atmosphere of 5% CO2 and plated at 10,000 cells/well in a 96-well plate (Corning Cat. N. 3610). The compounds were dissolved at a concentration of 10 mM in DMSO. Cells were stimulated for 48 h at 37 °C with serial dilutions of the compounds at the following concentrations: 0.1, 1, 10, 50, 100, and 200 μM and dispensed with an HP Dispenser (Tecan), as triplicates for each concentration. DMSO normalisation at 1.5% was performed in each well.
as §1

Data set [6] can be described thus: Caco-2 intestinal permeability. To be noted: human; for efflux ratio at 60 min, 10 μM: Caco-2, pH 7.4, without inhibitor, read-out: Efflux Ratio (Papp BA/Papp AB); for Papp A→B at 60 min, 10 μM / Papp B→A at 60 min, 10 μM: Caco-2, pH 7.4. In kind it is in vitro ADME, human. The method, then:
Caco-2 cells (cod. HTB-37) were bought from ATCC (American Type Culture Collection, Rockville, MD, USA). Caco-2 cells were cultured for 21 days on a 24 trans-well plate to reach the right confluence and differentiate until the formation of the intestinal epithelium mimetic monolayer. The test substance permeability was measured in both directions (apical to basolateral [A→B] and basolateral to apical [B→A]) across the cell monolayer. The assay was carried out in HBSS transport medium at pH 7.4. Test substance at single concentration (10 μM) was tested in duplicate at one time point (60 min). Monolayer integrity of Caco-2 cells was evaluated by TEER measurements during the experiment and by Lucifer Yellow test after the incubation with the test compound. The concentrations of the test substance and/or reference controls were measured by LC-MS/MS.
When the inhibitor leads the efflux ratio to a significant reduction (>50%) or to unity, the test compound is classified as a probable substrate of that efflux transporter. As control, the modulation of the efflux ratio of a reference known substrate (Digoxin) was evaluated with or without the respectively inhibitors in every experiment. […] In parallel, mass balance (%) of recovered test substance was also determined. […] Outside these ranges the permeability data is not reliable.

Structures are written as SMILES. Where “and” joins values, the source holds several entries; their conditions need not be identical. Equal entries are not always repeated.

As for `COc1cc(C(=O)c2ccc(C)cc2C)cc([N+](=O)[O-])c1O` [Compound 2, (4-Hydroxy-3-methoxy-5-nitrophenyl)-1-(2,4-dimethylphenyl)methanone], at TTR [1] (ligand 1 µM), the “relative abundance of TTR monomer” value is 7% and 7.5 ± 0.4%. The “relative abundance of TTR monomer” value at TTR [1] (ligand 10 µM) amounted to 9.2 ± 1.5%. Further, at TTR [2], the “n (stoichiometry of binding, ligand:TTR tetramer)” value came to 2.1 ± 0.3; the “∆H” value is -10.5 kcal/mol and -10.5 ± 0.2 kcal/mol; the “∆S” value is −0.4 ± 0.1; binding was characterised by a dissociation constant (Kd) of 0.025 ± 0.005 µM. In data set [3], the “CHI (pH 2.0)” value came out at 96.1, the “CHI (pH 7.4)” value stood at 53.8 and the “CHI (pH 10.5)” value is 50.2. The same compound came in with an EC50 in data set [4] of 216 ± 2.2 µM. Also, in data set [5], the EC50 worked out at 174 ± 3.7 µM. For the same compound, the recovery at 60 min, 10 µM in data set [6] (Caco-2, pH 7.4, A→B) amounted to 69 ± 8%. For the same compound, in data set [6] (Caco-2, pH 7.4, B→A), the recovery at 60 min, 10 µM came out at 80 ± 9%. Besides, in data set [6], the efflux ratio at 60 min, 10 μM is 1; the Papp A→B at 60 min, 10 μM stood at 25 ± 0.3 ×10⁻⁶ cm/s; the Papp B→A at 60 min, 10 μM is 26.8 ± 2.5 ×10⁻⁶ cm/s.

For the compound `COc1cc(C(=O)c2ccc(C)cc2)cc([N+](=O)[O-])c1O` [3-OMT, 3-O-methyltolcapone], on TTR [1] (ligand 1 µM), the “relative abundance of TTR monomer” value is 14% and 14.1 ± 1.8%. Moreover, the “relative abundance of TTR monomer” value at TTR [1] (ligand 10 µM) was 9.4 ± 1.5%. At TTR [2], the “n (stoichiometry of binding, ligand:TTR tetramer)” value is 1.9 ± 0.2; the “∆H” value was -8.9 kcal/mol and -8.9 ± 0.3 kcal/mol; the “∆S” value worked out at 4.6 ± 0.5; the dissociation constant (Kd) is 0.033 ± 0.009 µM. For the same compound, in data set [3], the “CHI (pH 2.0)” value turned out to be 89.2, the “CHI (pH 7.4)” value was 50.2 and the “CHI (pH 10.5)” value was found to be 46.0. The EC50 in data set [4] was 262 ± 20.7 µM. The same compound registered an EC50 in data set [5] of 226.3 ± 1.3 µM. In data set [6] (Caco-2, pH 7.4, A→B), this compound displayed a recovery at 60 min, 10 µM of 66 ± 4%. Moreover, the recovery at 60 min, 10 µM in data set [6] (Caco-2, pH 7.4, B→A) amounted to 83 ± 8%. Further, in data set [6], the efflux ratio at 60 min, 10 μM worked out at 1.5; the Papp A→B at 60 min, 10 μM came out at 16 ± 2.9 ×10⁻⁶ cm/s; the Papp B→A at 60 min, 10 μM was found to be 24.3 ± 3 ×10⁻⁶ cm/s.

In the case of `COc1cc(C(=O)c2cc(C)cc(C)c2)cc([N+](=O)[O-])c1O` [Compound 1, (4-Hydroxy-3-methoxy-5-nitrophenyl)-1-(3,5-dimethylphenyl)methanone], the “relative abundance of TTR monomer” value at TTR [1] (ligand 1 µM) is 17% and 17.2 ± 2.1%. Moreover, the “relative abundance of TTR monomer” value on TTR [1] (ligand 10 µM) was 9.5 ± 2.8%. Besides, at TTR [2], the “n (stoichiometry of binding, ligand:TTR tetramer)” value came out at 1.8 ± 0.1; the “∆H” value is -11.5 kcal/mol and -11.5 ± 1.3 kcal/mol; the “∆S” value is given as −2.9 ± 0.9; the Kd was found to be 0.071 ± 0.026 µM. Moreover, in data set [3], the “CHI (pH 2.0)” value is listed as 97.8, the “CHI (pH 7.4)” value came out at 55.5 and the “CHI (pH 10.5)” value came to 51.7. In data set [4], this compound showed an EC50 of 410 ± 33 µM. This compound returned an EC50 in data set [5] of 172 ± 5 µM. Besides, the recovery at 60 min, 10 µM in data set [6] (Caco-2, pH 7.4, A→B) was found to be 64 ± 4%. The compound further returned a recovery at 60 min, 10 µM in data set [6] (Caco-2, pH 7.4, B→A) of 77 ± 2%. Moreover, in data set [6], the efflux ratio at 60 min, 10 μM was determined as 1; the Papp A→B at 60 min, 10 μM is 24 ± 2.1 ×10⁻⁶ cm/s; the Papp B→A at 60 min, 10 μM worked out at 23.1 ± 2.3 ×10⁻⁶ cm/s.

As usually defined, the Kd is a measure of binding affinity in units of concentration. The term EC50 denotes the concentration at which the effect is half-maximal. One may read the Papp A→B as how fast a substance crosses the layer from the apical side. By Papp B→A is commonly meant the apparent permeability from the basolateral to the apical side of a cell layer.
